Measured values: publication PMC7725506, “Functional Diversification of SRSF Protein Kinase to Control Ubiquitin-Dependent Neurodevelopmental Signaling” (Developmental Cell, 2020)
pIC50: −log10 of the molar value.

Key:
RNF12 phospho-Ser214 = assay: RNF12 SR-motif phosphorylation in mESCs, immunoblotting for RNF12 phospho-Ser214 and total RNF12; assay type: cell-based, mouse; conditions: 10 μM, 4 h
RNF12 SR-motif = RNF12 SR-motif phosphorylation in mESCs by phos-tag immunoblotting; assay type: cell-based, mouse; conditions: 10 μM, 4 h
Description: RNF12 4xSA = S212A/S214A/S227A/S229A. (B) Rlim^−^/y mESCs were transfected with the indicated RNF12 constructs and lysates treated with λ-phosphatase and analyzed by phos-tag immunoblotting for RNF12. Unphosphorylated recombinant RNF12 is included as a control. […] RNF12 4xSA is included as an unphosphorylated control. […] (F) Phosphorylated peptides detected by mass spectrometry following in vitro phosphorylation of RNF12 by SRPK1. pS, phospho-serine. (G) Autoradiography of RNF12 WT or S212A/S214A/S227A/S229A (4xSA) following a radioactive kinase reaction with SRPK1, SRPK2, or SRPK3. RNF12 protein is detected by Coomassie staining. (H) Srpk1^+/+ and Srpk1^−/− mESCs were transfected with control or SRPK2 siRNA and RNF12 SR-motif phosphorylation analyzed by phos-tag immunoblotting for RNF12. SRPK2, SRPK1, RNF12, and ERK1/2 levels were determined by immunoblotting. Related to Figure S2; Tables S3 and S4.
All compounds were diluted in DMSO and mESCs treated with 10 μM inhibitor for 4 h prior lysis unless indicated otherwise. […] For proteasome inhibition mESCs were treated with 10 μM MG132 (Sigma Aldrich) for 6 h. All chemicals are listed in the Key Resource Table.
Phos-tag analyses were performed by loading protein samples containing 10 mM MnCl2 in 8% polyacrylamide gels containing 50 μM Phos-tag reagent (MRC-PPU reagents and services) and 0.1 mM MnCl2. After electrophoresis, gels were washed three times for 10 mins in Transfer buffer (48 mM Tris, 39 mM Glycine, 20% Methanol) supplemented with 20 mM EDTA. Proteins were then transferred to Nitrocellulose membranes, blocked and probed with the indicated antibodies. All protein signals were quantified using Image Studio (LI-COR Biosciences) or Image Lab software (Bio-Rad). Primary antibodies are listed in the Key Resource Table. […]
SR-motif phosphorylation of HA-immunoprecipitated RNF12 analysed by phos-tag immunoblotting.
HA-RNF12 levels are shown as a control. Fully phosphorylated (4-P) and unphosphorylated (0-P) RNF12 SR-motif is indicated by open (○) and closed (●) circles respectively.
Data are represented as mean ± S.D. (n=3). (C) RNF12 expressing mESCs were treated with 10 […]
immunoblotting. HA-RNF12 and ERK1/2 levels are shown as a control. (D) RNF12 expressing […]
5 h (+ wash-out). RNF12 phosphorylation was analysed via phos-tag immunoblotting. ERK1/2 levels are shown as a loading control. (E) Multiple Srpk1-/- and Srpk2-/- mESC clones were […]

[1] = test system: Foxp1 exon 16-16b alternative splicing switch; assay: Foxp1 exon 16-16b incorporation in mESCs by quantitative RT-PCR; assay type: cell-based, mouse; conditions: 8 h
Experimental: SRSF phosphorylation, SRPK1, SRPK2, and ERK1/2 levels were determined by immunoblotting. Expected positions of SRSFs that are not detected are shown in gray. Quantification of SRSF phosphorylation (Right). Data represented as mean ± SEM (n = 4). […] Neuro 2a is a control for exon 16b exclusion in differentiated cells (Bottom). Data represented as mean ± SEM (n = 3). […] Exon 16 inclusion: (^∗∗∗∗) p < 0.0001, Exon 16b inclusion: (^∗) p = 0.0164, p = 0.0485, and p = 0.0489 (left to right). Ratio exon 16b/16: (^∗∗∗∗) p < 0.0001, (^∗∗∗) p = 0.0003. (C) SRPK substrates predicted using ScanProsite and grouped according to UniProt functions. (D) RNF12 phosphorylation sites detected by mass-spectrometry. LZL, leucine-zipper like; NLS, nuclear localization signal; NES, nuclear export signal; RING, RING E3 ubiquitin ligase catalytic domain. (E) CMGC family kinase copy numbers in mESCs determined by quantitative proteomics and represented using Kinoviewer. (F) CMGC kinase (200 mU) phosphorylation of the RNF12 SR-motif in vitro was determined by immunoblotting for RNF12 phospho-Ser214 and total RNF12. […] Normalized RNF12 Ser214 phosphorylation is shown below. Data represented as mean ± SEM (n = 3). […] RNF12 SR-motif phosphorylation was analyzed by immunoblotting for RNF12 phospho-Ser214 and RNF12. SRPK1 and SRPK2 levels are shown as a loading control, Related to Figure S1; Tables S1 and S2.
Total RNA extraction and reverse transcription was performed as described. Quantitative PCR reactions using SsoFast EvaGreen Supermix (Bio-Rad) were performed in a CFX384 real time PCR system (Bio-Rad). Relative RNA expression was calculated through the ΔΔCt method and normalised to Gapdh expression. Data was analysed in Excel (Microsoft) and statistical analysis performed in GraphPad Prism v7.0c software (GraphPad Software Inc.).

[2] = test system: Ser-Arg rich splicing factors (SRSF); assay: SRSF phosphorylation in mESCs, immunoblotting with phosphoepitope SR proteins antibody; assay type: cell-based, mouse; conditions: 10 μM, 4 h
SRPK1 = SRPK1 (Homo sapiens, UniProt Q96SB4); assay type: biochemical; conditions: read-out: IC50, inhibition of RNF12 phosphorylation by SRPK1
Chain of SRPK1 (Q96SB4 whole entry): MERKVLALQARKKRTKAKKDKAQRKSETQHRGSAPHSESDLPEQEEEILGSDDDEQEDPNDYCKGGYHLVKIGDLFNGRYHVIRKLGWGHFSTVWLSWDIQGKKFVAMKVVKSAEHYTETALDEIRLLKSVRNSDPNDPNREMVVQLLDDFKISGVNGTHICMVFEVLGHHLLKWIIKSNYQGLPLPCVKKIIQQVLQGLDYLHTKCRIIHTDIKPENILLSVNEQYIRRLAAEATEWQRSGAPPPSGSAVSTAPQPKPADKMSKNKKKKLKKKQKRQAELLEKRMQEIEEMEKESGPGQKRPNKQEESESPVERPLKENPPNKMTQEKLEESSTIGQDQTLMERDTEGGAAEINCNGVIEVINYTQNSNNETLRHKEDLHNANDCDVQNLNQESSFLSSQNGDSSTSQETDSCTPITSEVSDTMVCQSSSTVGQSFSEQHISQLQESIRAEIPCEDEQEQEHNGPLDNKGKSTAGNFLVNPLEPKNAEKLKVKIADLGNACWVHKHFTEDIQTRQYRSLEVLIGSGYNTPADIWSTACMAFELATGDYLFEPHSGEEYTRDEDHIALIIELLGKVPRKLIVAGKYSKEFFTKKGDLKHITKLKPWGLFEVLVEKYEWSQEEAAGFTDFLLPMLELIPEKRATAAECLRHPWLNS
Experimental: Cells were lysed, and 1.5 mg of protein immunoprecipitated with 2 μg of SRPK1 or SRPK2 antibodies (BD Biosciences). Immunoprecipitates were then washed with lysis buffer supplemented with 500 mM NaCl and half of the sample was resuspended in loading buffer. The remainder was subjected to in vitro phosphorylation assay containing 0.5 μg RNF12 and 2 mM ATP in kinase buffer (50 mM Tris-HCl [pH 7.5], 0.1 mM EGTA, 10 mM MgCl2, 2 mM DTT) and incubated at 30°C for 30 min. […] For radioactive in vitro kinase assays, reactions were supplemented with 1 μCi γ-^32P ATP. Reactions were incubated at 30°C for 30 min in presence or absence of inhibitor as indicated and samples subjected to polyacrylamide electrophoresis and immunoblot or Coomassie blue staining and signal detected via ECL, infrared detection or autoradiography.
Supplemental Figure Legends
(Related to Figure 1). (A) Wild-type (WT) mESCs were analysed for protein copy number by absolute quantitative proteomics. […]
Data are represented as mean ± S.E.M. (n=3). […] ND = not detected. (B) Inhibition of RNF12 phosphorylation in vitro by SRPK1 and SRPK2 in the presence of varying concentrations of the indicated SRPK inhibitors was determined by immunoblotting for RNF12 phospho-Ser214 (Left). […] Immunoblots were quantified to generate SRPK inhibitor dose-response curves for inhibition of RNF12 phosphorylation by SRPK1 and SRPK2 in vitro (Right). […]

RNF12 4xSA-KI mESCs = assay: RNF12 localization by immunofluorescence in RNF12 4xSA-KI mESCs; assay type: cell-based, mouse; conditions: 30 nM, 6 h
Experimental: Figure 3 SRPK Phosphorylation of RNF12 Regulates Nuclear Anchoring and E3 Ubiquitin Ligase Activity (A) RNF12 localization in wild-type knockin (WT-KI), SR-motif phosphorylation site knockin (4xSA-KI), or SR-motif deletion (ΔSR-KI) mESCs was determined by immunofluorescence. Scalebar: 20 μm (Left). Quantification of the Nucleus/cytosol fluorescence intensity ratio (Right). Data represented as mean ± SEM. […] (^∗∗∗∗) p < 0.0001. (B) RNF12 4xSA-KI mESCs were treated with 30 nM leptomycin B for 6 h and RNF12 localization analyzed by immunofluorescence. Scale bar: 20 μm (Top). Quantification of the nucleus/cytosol fluorescence intensity ratio (Bottom). […] (^∗∗∗∗) p < 0.0001. (C) FLAG-tagged SRPK1 and SRPK2 were expressed in mESCs and localization of SRPKs and RNF12 analyzed by immunofluorescence. Scale bar: 20 μm (Left). Quantification of the cytosol/nucleus fluorescence intensity ratio (Right). […] (^∗∗∗∗) p < 0.0001. […] RNF12, REX1 and ERK1/2 were detected by immunoblotting. (^∗) indicates non-specific signal. (E) REX1 levels were analyzed in RNF12 WT-KI, 4xSA-KI, ΔSR-KI, and W576Y-KI mESCs by immunoprecipitation followed by immunoblotting. ERK1/2 levels were detected by immunoblotting. (F) REX1 half-life was determined in RNF12 WT-KI, 4xSA-KI, ΔSR-KI, and W576Y-KI mESCs by immunoblotting. (Top) quantification of HA-REX1 protein levels normalized to ERK1/2 and calculated protein half-life (Bottom). […]

Row | Compound | RNF12 phospho-Ser214/total ratio (RNF12 phospho-Ser214) | RNF12 SR-motif phosphorylation (phos-tag) (RNF12 SR-motif) | further results
1 | CN1CCN(C(=O)C(C)(C)c2ccc(C(=O)Nc3cn4cc(-c5ccncc5)ccc4n3)cc2)CC1 [CLK-IN-T3] | little impact | minor effect | Foxp1 exon 16b-exon 16 inclusion ([1]; 1 μM): promotes exon 16b inclusion while suppressing inclusion of exon 16; SRSF phosphorylation [2]: widespread, robust inhibition
2 | COc1ccc2c(C)nc(Nc3nc(C)c(C)c(=O)[nH]3)nc2c1 [Madrasin] |  |  | Foxp1 exon 16b-exon 16 inclusion ([1]; 10 μM): promotes inclusion of exon 16b over exon 16
3 | O=C1NC(=NCc2cccs2)S/C1=C\c1ccc2ncccc2c1 [RO-3306] | some effect | little impact | 
4 | O=C(Nc1cc(C(F)(F)F)ccc1N1CCN(Cc2ccccn2)CC1)c1ccc(-c2ccncc2)o1 [SPHINX31] |  | minor effect | 
5 | O=C(Nc1cc(C(F)(F)F)ccc1N1CCCCC1)c1ccncc1 [SRPIN340] |  |  | pIC50 (SRPK1): 5.33
6 | CN1CC[C@H](c2c(O)cc(O)c3c(=O)cc(-c4ccccc4Cl)oc23)[C@H](O)C1 [flavopiridol] | some effect | little impact | 
7 | CCC(=C/[C@H](C)C/C=C/C(C)=C/[C@@H](C)C(=O)[C@@H](C)[C@H](O)[C@@H](C)C/C(C)=C/C(=O)O)/C=C/[C@@H]1OC(=O)C=C[C@@H]1C [leptomycin B] |  |  | RNF12 4xSA localization (RNF12 4xSA-KI mESCs): primarily nuclear; nucleus/cytosol ratio of RNF12 4xSA (fluorescence intensity, mean) (RNF12 4xSA-KI mESCs): 4.08
